In patent US9884043B2, “RORgammaT inhibitors” (Merck Sharp & Dohme Corp., priority 2011, dated 2018):
pIC50: −log10 of the molar value.

biological target: T1, HIS-tagged RORγ-LBD (Homo sapiens, UniProt P51449); assay: TR-FRET assay (Protocol B), RORγ-LBD lysate / biotinylated SRC1-2 LXXLL peptide; format: biochemical; conditions: unpurified RORγ-LBD lysate ~10 nM, SRC1-2 peptide 450 nM
T1 construct: HIS-tagged RORγ-LBD was recombinantly expressed in SF9 cells using a baculovirus expression system; made in house; host or cells: SF9 cells, baculovirus; crude lysate used
T1 sequence (P51449 269-508 limits assumed): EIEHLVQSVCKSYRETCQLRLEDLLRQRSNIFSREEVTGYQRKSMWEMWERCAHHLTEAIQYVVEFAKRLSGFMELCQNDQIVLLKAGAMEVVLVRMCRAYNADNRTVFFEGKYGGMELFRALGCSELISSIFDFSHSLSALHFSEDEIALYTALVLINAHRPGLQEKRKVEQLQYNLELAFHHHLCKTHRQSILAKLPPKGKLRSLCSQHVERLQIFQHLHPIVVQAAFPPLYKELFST
Text: Activation of RORgammaT activity can be measured using e.g. biochemical TR-FRET assay. In such an assay, interaction of cofactor-derived peptides with human RORgammaT-Ligand Binding Domain (LBD) can be measured.
To identify novel antagonists of RORgammaT, an assay was developed which employs the interaction of RORgammaT with its co-activator peptide SRC1_2. […] The assay was run following three slightly different protocols, i.e. Protocol A, Protocol B, and Protocol C, which are described below.
TR-Fret Assay (Protocol B)
HIS-tagged RORγ-LBD was recombinantly expressed in SF9 cells using a baculovirus expression system. The protein was not purified. Cells were lysed and the lysate was used as a source for RORγ-LBD for the assay. A 1:80 dilution of RORγ-LBD lysate in assay buffer (25 mM HEPES pH 7.0, 100 mM NaCl, 0.01% Tween, 0.1% BSA) was prepared and 5 μL was added to each well (RORγ-LBD final concentration ˜10 nM). Control wells received lysate from SF9 cells not expressing RORγ-LBD.
Compounds to be tested were diluted to 100× final test concentration in DMSO and further diluted to 4× final test concentration using assay buffer to provide the test compound mixture. An aliquot (5 μL) of the test compound mixture was added to each well.

pIC50 | SMILES
5.00 to 6.30 | O=C(O)Cc1ccc(-c2nn(C(=O)c3c(Cl)cccc3C(F)(F)F)c3cccc(F)c23)cc1 [Example 24G, 2-(4-(1-(2-chloro-6-(trifluoromethyl)-benzoyl)-4-fluoro-1H-indazol-3-yl)phenyl)acetic acid]
> 7.30 | O=C(O)c1ccc(-c2nn(C(=O)c3c(Cl)cccc3C(F)(F)F)c3cccc(C(F)(F)F)c23)cc1 [Example 24AO, 4-(1-(2-chloro-6-(trifluoromethyl)-benzoyl)-4-(trifluoromethyl)-1H-indazol-3-yl)benzoic acid]
> 7.30 | CN(C)C(=O)c1ccc2c(-c3ccc(C(=O)O)cc3)nn(C(=O)c3c(Cl)cccc3C(F)(F)F)c2c1 [Example 25B, 4-(1-(2-chloro-6-(trifluoromethyl)benzoyl)-6-(dimethyl-carbamoyl)-1H-indazol-3-yl)benzoic acid]
6.30 to 7.30 | NC(=O)c1ccc(-c2nn(C(=O)c3c(Cl)cccc3C(F)(F)F)c3cccc(F)c23)cc1 [Example 24J, 4-(1-(2-chloro-6-(trifluoromethyl)-benzoyl)-4-fluoro-1H-indazol-3-yl)benzamide]
< 5.00 | COc1cc(C(=O)O)cc(OC)c1-c1nn(C(=O)c2c(Cl)cccc2C(F)(F)F)c2cccc(F)c12 [Example 24T, 4-(1-(2-chloro-6-(trifluoromethyl)-benzoyl)-4-fluoro-1H-indazol-3-yl)-3,5-dimethoxybenzoic acid]
6.30 to 7.30 | O=C(NCCO)c1ccc2c(-c3ccc(C(=O)O)c(F)c3)nn(C(=O)c3c(Cl)cccc3C(F)(F)F)c2c1 [Example 25G, 4-(1-(2-chloro-6-(trifluoromethyl)benzoyl)-6-(2-hydroxyethyl-carbamoyl)-1H-indazol-3-yl)-2-fluorobenzoic acid]
5.00 to 6.30 | O=C(c1c(Cl)cccc1C(F)(F)F)n1nc(-c2ccc(C(O)(C(F)(F)F)C(F)(F)F)cc2)c2c(F)cccc21 [Example 24D, (2-chloro-6-(tri-fluoromethyl)-phenyl)(4-fluoro-3-(4-(1,1,1,3,3,3-hexafluoro-2-hydroxypropan-2-yl)phenyl)-1H-indazol-1-yl)methanone]
> 7.30 | O=C(O)c1ccc(-c2nn(C(=O)c3c(Cl)cccc3C(F)(F)F)c3cccc(F)c23)c(O)c1 [Example 26E, 4-(1-(2-chloro-6-(trifluoromethyl)benzoyl)-4-fluoro-1H-indazol-3-yl)-3-hydroxybenzoic acid]
> 7.30 | COc1cccc(F)c1C(=O)n1nc(-c2ccc(C(=O)O)cc2F)c2ncccc21 [Example 24AN, 3-fluoro-4-(1-(2-fluoro-6-methoxybenzoyl)-1H-pyrazolo[4,3-b]pyridin-3-yl)benzoic acid]
> 7.30 | CN(C)C(=O)c1ccc2c(-c3ccc(C(=O)O)cc3F)nn(C(=O)c3c(Cl)cccc3C(F)(F)F)c2c1 [Example 25E, 4-(1-(2-chloro-6-(trifluoromethyl)benzoyl)-6-(dimethyl-carbamoyl)-1H-indazol-3-yl)-3-fluorobenzoic acid]
6.30 to 7.30 | COc1cc(F)c2c(-c3ccc(C(=O)O)cc3)nn(C(=O)c3c(Cl)cccc3C(F)(F)F)c2c1 [Example 24AZ, 4-(1-(2-chloro-6-(trifluoromethyl)-benzoyl)-4-fluoro-6-methoxy-1H-indazol-3-yl) benzoic acid]
> 7.30 | O=C(O)c1ccc(-c2nn(C(=O)c3c(Cl)cccc3C(F)(F)F)c3cc(O)ccc23)cc1 [Example 24BA, 4-(1-(2-chloro-6-(trifluoromethyl)-benzoyl)-6-hydroxy-1H-indazol-3-yl)benzoic acid]
> 7.30 | CN(C)C(=O)c1ccc2c(-c3ccc(C(=O)O)cc3Cl)nn(C(=O)c3c(Cl)cccc3C(F)(F)F)c2c1 [Example 25J, 3-chloro-4-(1-(2-chloro-6-(trifluoromethyl)benzoyl)-6-(dimethyl-carbamoyl)-1H-indazol-3-yl)benzoic acid]
> 7.30 | O=C(O)c1cc(F)c(-c2nn(C(=O)c3c(Cl)cccc3C(F)(F)F)c3cccc(F)c23)cc1F [Example 24W, 4-(1-(2-chloro-6-(trifluoromethyl)-benzoyl)-4-fluoro-1H-indazol-3-yl)-2,5-difluorobenzoic acid]
> 7.30 | O=C(O)c1ccc(-c2nn(C(=O)c3c(Cl)cccc3C(F)(F)F)c3ccccc23)cc1F [Example 24AQ, sodium 4-(1-(2-chloro-6-(trifluoromethyl)-benzoyl)-1H-indazol-3-yl)-2-fluoro benzoate]
6.30 to 7.30 | COc1cc(C(=O)O)ccc1-c1nn(C(=O)c2c(Cl)cccc2C(F)(F)F)c2cccc(F)c12 [Example 24Q, 4-(1-(2-chloro-6-(trifluoromethyl)-benzoyl)-4-fluoro-1H-indazol-3-yl)-3-methoxybenzoic acid]
6.30 to 7.30 | N#Cc1ccc2c(-c3ccc(C(=O)O)cc3)nn(C(=O)c3c(Cl)cccc3C(F)(F)F)c2c1 [Example 29, 4-(1-(2-chloro-6-(trifluoromethyl)benzoyl)-6-cyano-1H-indazol-3-yl)benzoic acid]
> 7.30 | Cc1cc(C(=O)O)ccc1-c1nn(C(=O)c2c(Cl)cccc2C(F)(F)F)c2cccnc12 [Example 24AF, 4-(1-(2-chloro-6-(trifluoromethyl)-benzoyl)-1H-pyrazolo[4,3-b]pyridin-3-yl)-3-methylbenzoic acid]
> 7.30 | O=C(O)c1ccc(-c2nn(C(=O)c3c(Cl)cccc3C(F)(F)F)c3ccccc23)cc1C(F)F [Example 28, 4-(1-(2-chloro-6-(trifluoromethyl)benzoyl)-1H-indazol-3-yl)-2-(difluoromethyl)benzoic acid]
> 7.30 | NCc1ccc2c(-c3ccc(C(=O)O)cc3F)nn(C(=O)c3c(Cl)cccc3C(F)(F)F)c2c1 [Example 27B, 4-(6-(aminomethyl)-1-(2-chloro-6-(trifluoromethyl)benzoyl)-1H-indazol-3-yl)-3-fluorobenzoic acid]
> 7.30 | Cc1cc(C(=O)O)c(F)cc1-c1nn(C(=O)c2c(Cl)cccc2C(F)(F)F)c2cccc(F)c12 [Example 24K, 4-(1-(2-chloro-6-(trifluoromethyl)-benzoyl)-4-fluoro-1H-indazol-3-yl)-2-fluoro-5-methylbenzoic acid]
6.30 to 7.30 | O=C(O)c1cc(F)c(-c2nn(C(=O)c3c(Cl)cccc3C(F)(F)F)c3cccc(F)c23)cc1Cl [Example 24X, 2-chloro-4-(1-(2-chloro-6-(trifluoromethyl)-benzoyl)-4-fluoro-1H-indazol-3-yl)-5-fluorobenzoic acid]
5.00 to 6.30 | O=C(O)Cc1ccc(-c2nn(C(=O)c3c(Cl)cccc3C(F)(F)F)c3cccnc23)cc1 [Example 24AD, 2-(4-(1-(2-chloro-6-(trifluoromethyl)-benzoyl)-1H-pyrazolo[4,3-b]pyridin-3-yl)phenyl)acetic acid]
> 7.30 | NCc1ccc2c(-c3ccc(C(=O)O)cc3)nn(C(=O)c3c(Cl)cccc3C(F)(F)F)c2c1 [Example 27A, 4-(6-(aminomethyl)-1-(2-chloro-6-(trifluoromethyl)benzoyl)-1H-indazol-3-yl)benzoic acid]

SMILES | pIC50
CC(=O)Oc1cc(-c2nn(C(=O)c3c(Cl)cccc3C(F)(F)F)c3cccnc23)ccc1C(=O)O [Example 26I, 2-acetoxy-4-(1-(2-chloro-6-(trifluoromethyl)benzoyl)-1H-pyrazolo[4,3-b]pyridin-3-yl)benzoic acid] | > 7.30
